Here are results for two molecules from publication PMC5739422, “Metabolomic profiling and stable isotope labelling of Trichomonas vaginalis and Tritrichomonas foetus reveal major differences in amino acid metabolism including the production of 2-hydroxyisocaproic acid, cystathionine and S-methylcysteine” (PLoS ONE, 2017).

In this assay the test system is recombinant T. vaginalis cysteine synthase (CS). Briefly: coupled assay with MGL1 and LDH, NADH oxidation at […] nm. It is filed as biochemical, Trichomonas vaginalis. The following applies: 200 mM potassium phosphate pH 7.8, 37°C.

As a reminder, the Km is the concentration of substrate that gives half-maximal velocity. In the case of `N[C@@H](COP(=O)(O)O)C(=O)O` [OPS], the Km (cysteine synthase reaction, 3 mM Na2S) was 18.2 ± 0.8 mM.

For `CS` [CH3SNa], the Km (SMC synthase reaction, 10 mM OPS) came to 4.3 ± 1.6 mM.
